From patent US11390644B2, “Raman tag” (Purdue Research Foundation, priority 2014, dated 2022)
Entries after “also recorded” stand apart in the source; their conditions may differ.

Assays:
CHO cells [1] = experiment: Propidium iodide staining for late apoptosis and necrosis; type: cell-based, Chinese hamster; conditions: 30 μM, 24 h
Protocol: (§1) Referring now to FIG. 3, the cytotoxicity of cholesterol mimics was evaluated by MTT cell-viability assays after treating CHO cells with cholesterol mimic. Various concentrations of cholesterol mimic were added to the culture media and the cells were incubated for 48 hours before the assays were conducted. […] Adding a phenyl group reduced the cytotoxicity. To directly visualize the toxic effect, we stained the cells with propidium iodide for late apoptosis and necrosis.
(§2) To evaluate the cytotoxicity of tagged cholesterols, we performed MTT cell-viability assays after treating CHO cells with tagged cholesterol. Various concentrations of tagged cholesterol were added to the culture media and the cells were incubated for 48 h before the assays were conducted. […] To directly visualize the toxic effect, we stained the cells with propidium iodide for late apoptosis and necrosis. […] Based on the signal level and the severity of toxicity, we conclude that PhDY-Chol is the most suitable cholesterol probe for live cell imaging, and we used PhDY-Chol in subsequent experiments.
Propidium iodide was used to stain late apoptotic or necrotic cells. CHO cells were incubated with 30 μM of tagged cholesterol molecules for 24 h. The propidium iodide staining was performed following protocols provided by the manufacturer (Life Technologies).

[2] = MTT cell-viability assay of tagged cholesterols; type: cell-based, Chinese hamster; conditions: Chinese hamster; CHO cells, 48 h incubation; read-out: IC50 (cytotoxicity, MTT cell viability)
Protocol: as §1
as §2, with “cholesterol.” for “cholesterol. Various concentrations of tagged cholesterol were added to the culture media and the cells were incubated for 48 h before the assays were conducted.”
(§3) CHO cells were grown in 96-well plates with density of 4000 cells per well. The next day, the cells were treated with each cholesterol probe at the indicated concentrations for 48 h. Cell-viability was measured with the MTT colorimetric assay (Sigma).

CHO cells [3] = experiment: MTT cell-viability assay of tagged cholesterols; type: cell-based, Chinese hamster
Protocol: as §1
as §2, with “cholesterol.” for “cholesterol. Various concentrations of tagged cholesterol were added to the culture media and the cells were incubated for 48 h before the assays were conducted.”
as §3

ACAT-1 = target: T1, ACAT-1 (Cricetulus griseus, UniProt Q60457); experiment: ACAT-1 inhibition (avasimibe) blocking probe storage into lipid droplets; type: cell-based, Chinese hamster; conditions: CHO cells
T1 construct: endogenous in cells; host or cells: CHO-K1 cells
T1 sequence (Q60457 1-546): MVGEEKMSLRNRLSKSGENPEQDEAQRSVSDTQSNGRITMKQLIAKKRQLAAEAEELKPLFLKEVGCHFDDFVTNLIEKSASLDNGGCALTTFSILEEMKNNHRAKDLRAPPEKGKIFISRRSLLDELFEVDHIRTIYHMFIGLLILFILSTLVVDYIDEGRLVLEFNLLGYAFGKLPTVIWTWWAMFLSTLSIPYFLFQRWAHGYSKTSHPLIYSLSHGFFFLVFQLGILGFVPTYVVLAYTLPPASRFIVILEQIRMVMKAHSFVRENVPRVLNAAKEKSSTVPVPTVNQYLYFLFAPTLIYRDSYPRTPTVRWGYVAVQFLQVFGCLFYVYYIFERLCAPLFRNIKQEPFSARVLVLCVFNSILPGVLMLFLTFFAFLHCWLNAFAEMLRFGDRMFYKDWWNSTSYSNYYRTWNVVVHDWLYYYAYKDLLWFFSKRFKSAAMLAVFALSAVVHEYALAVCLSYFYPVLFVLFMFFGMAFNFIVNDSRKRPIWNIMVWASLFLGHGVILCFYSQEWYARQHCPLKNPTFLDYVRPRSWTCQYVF
Protocol: (§4) It is hypothesized that PhDY-Chol is converted into PhDY-cholesteryl ester, by ACAT-1, the enzyme responsible for cholesterol esterification, as diagrammed in FIG. 4. To confirm the esterification of PhDY-Chol, we inhibited ACAT-1 with avasimibe for 24 h before addition of PhDY-Chol. […] Although LDs were still visible, the amount of PhDY-Chol signal found inside LDs reduced by 4 times (FIG. 4d). […] To determine where PhDY-Chol accumulates after ACAT-1 inhibition, we stained the cells with LysoTracker for lysosomes. […] To emphasize the physiological compatibility of our PhDY tag, we treated CHO cells with BODIPY-cholesterol.
as §4, with “important to note that PhDY-Chol-rich structures inside the CHO cells could not be stained by filipin (FIG. 10b), implicating that it is not in the free form. We hypothesize” for “hypothesized”, “esterification (FIG. 4b).” for “esterification, as diagrammed in FIG. 4.”
ACAT-1 inhibition was used to block cholesterol esterification either by adding a potent ACAT inhibitor, avasimibe, or by RNA interference with ACAT-1 shRNA plasmid. […]
(§5) To quantify PhDY-rich area, we first selected one cell and used “Threshold” function to select PhDY-rich cellular regions using ImageJ. […] To quantify PhDY-rich LDs, “Image Calculator” function in ImageJ was used to multiply SRS image of PhDY-Chol by TPEF image of BODIPY. Then, after using “Threshold” function to select PhDY-rich LDs, the number of PhDY-rich LDs was counted by “Analyze Particles” function. For each group, 7 cells were analyzed, and results were shown as mean±standard deviation (SD). […]

[4] = Photostability under continuous SRS / TPEF image acquisition; type: physicochemical; conditions: 50 mM solution, acquired continuously for 150 s, one acquisition every 30 s
Protocol: FIG. 14. The photostability of PhDY-Chol and the photo-bleaching of BODIPY-Chol. The SRS images of 50 mM PhDY-Chol solution and TPEF images of 50 mM BODIPY-Chol solution were acquired continuously for 150 s (one acquisition every 30 s).

M12 cells = experiment: HPβCD treatment of PhDY-Chol-labeled M12 cells; type: cell-based, Chinese hamster; conditions: HPβCD 500 μM, 30 h
From the text: (§6) We then treated the PhDY-Chol-labeled M12 cells with a cholesterol-mobilizing drug, hydroxypropyl-β-cyclodextrin (HPβCD). This drug is known to mediate lysosomal escape of cholesterol, and promote storage of excess cholesterol into LDs. […] These areas likely represent PhDY-cholesteryl ester stored in LDs. To confirm this possibility, we stained the cells with BODIPY for localization of LDs.
as §6, with “drug, HPβCD^40.” for “drug, hydroxypropyl-β-cyclodextrin (HPβCD).”, “into LDs^41.” for “into LDs.”
HPβCD was used as a drug treatment of NP-C disease. M12 cells were incubated with PhDY-Chol for 16 h as described above. […]
as §5

C#CCC[C@@H](C)[C@H]1CC[C@H]2[C@@H]3CC=C4C[C@@H](O)CC[C@]4(C)[C@H]3CC[C@]12C [A-Chol, alkyne cholesterol]
late apoptosis and necrosis, propidium iodide staining (CHO cells [1]): reduced density and extensive apoptosis
late apoptosis and necrosis, propidium iodide staining (CHO cells [1]; listed as alkyne-cholesterol): induces apoptosis and necrosis
IC50 at 48 h [2]: 16 µM
cytotoxicity in MTT cell-viability assay (CHO cells [3]; CHO cells, various concentrations, 48 h): toxic to the cells

CC1=CC(C)=[N+]2C1=C(CC[C@@H](C)[C@H]1CC[C@H]3[C@@H]4CC=C5C[C@@H](O)CC[C@]5(C)[C@H]4CC[C@]13C)c1c(C)cc(C)n1[B-]2(F)F [BODIPY-cholesterol, reference compound]
amount of probe incorporated into LDs after ACAT-1 inhibition (ACAT-1; ACAT-1 inhibited vs control): did not change; also recorded: no difference between the two groups
photostability / photo-bleaching of signal [4]: rapid photo-bleaching

C[C@H](CCC#Cc1ccccc1)[C@H]1CC[C@H]2[C@@H]3CC=C4C[C@@H](O)CC[C@]4(C)[C@H]3CC[C@]12C [PhA-Chol, phenyl-alkyne cholesterol]
late apoptosis and necrosis, propidium iodide staining (CHO cells [1]): minimum cell death

C[C@H](CCC#CC#Cc1ccccc1)[C@H]1CC[C@H]2[C@@H]3CC=C4C[C@@H](O)CC[C@]4(C)[C@H]3CC[C@]12C [PhDY-Chol, phenyl-diyne cholesterol]
late apoptosis and necrosis, propidium iodide staining (CHO cells [1]): minimum cell death
reduction of probe signal found inside LDs after ACAT-1 inhibition (ACAT-1; avasimibe 10 μM 24 h pre-treatment): 4 times
localization after ACAT-1 inhibition (LysoTracker staining) (ACAT-1; avasimibe treatment): partially located in lysosomes
cytotoxicity (CHO cells [3]; 16 h incubation at 50 μM): did not cause cytotoxicity
photostability / photo-bleaching of signal [4]: No significant change of the SRS signal

hydroxypropyl-β-cyclodextrin [HPβCD]
amount of PhDY-Chol in M12 cells after treatment (M12 cells): decreased by half
number of PhDY-rich LDs after treatment (M12 cells; BODIPY staining): increased significantly
